Reference: paper PMC7915026, “Sulfaguanidine Hybrid with Some New Pyridine-2-One Derivatives: Design, Synthesis, and Antimicrobial Activity against Multidrug-Resistant Bacteria as Dual DNA Gyrase and DHFR Inhibitors” (Antibiotics, 2021)
Converted amounts (≈) assume the structure as drawn.

Assays:
[1] = tested on: F. oxysporum (RCMB 008002); assay: MIC and MFC determination; assay type: cell-based
S. aureus ATCC 29213 [2] = assay: MIC and MBC determination; assay type: cell-based; settings: Staphylococcus aureus, ATCC29213, S. aureus
E. coli ATCC BAA-196 [3] = assay: MIC and MBC against multidrug-resistant strains; assay type: cell-based; settings: Escherichia coli, ATCCBAA196
Text: (§1) Norfloxacin was used as a positive control for the multidrug resistance study.
(§2) The experiment was repeating for three-times.

S. aureus ATCC 43300 [4] = assay: MIC and MBC against multidrug-resistant strains; assay type: cell-based; settings: Staphylococcus aureus, ATCC43300
Text: as §1, §2

[5] = tested on: P. aeruginosa ATCC BAA-2111; assay: MIC and MBC against multidrug-resistant strains; assay type: cell-based; settings: Pseudomonas aeruginosa, ATCCBAA2111
Text: as §1, §2

S. aureus ATCC 33591 [6] = assay: MIC and MBC against multidrug-resistant strains; assay type: cell-based; settings: Staphylococcus aureus, ATCC33591
Text: as §1, §2

[7] = tested on: Salmonella typhi (S. typhi ATCC 6539); assay: microbe, parasite or virus in culture; assay type: cell-based; settings: Salmonella enterica, Salmonella typhi
[8] = biological target: E. coli DHFR (dihydrofolate reductase) (Escherichia coli, UniProt P0ABQ4); assay: In vitro DHFR enzymatic assay; assay type: biochemical
Chain of E. coli DHFR (dihydrofolate reductase) (P0ABQ4 whole entry): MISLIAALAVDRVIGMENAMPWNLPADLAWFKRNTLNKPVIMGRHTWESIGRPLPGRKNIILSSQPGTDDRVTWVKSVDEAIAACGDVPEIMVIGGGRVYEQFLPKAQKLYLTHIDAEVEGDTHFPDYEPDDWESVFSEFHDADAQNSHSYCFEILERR

E. coli ATCC BAA-196 [9] = assay: Inhibition zone against multidrug-resistant bacteria; assay type: cell-based; settings: MDRB E. coli ATCC BAA-196
Text: as §1
(§3) The antimicrobial activity performed at the bacteriology laboratory, Botany and Microbiology Department, Faculty of Science, Al-Azhar University, Cairo, Egypt. The inhibition zone (IZ) of the tested derivatives expressed as the diameter (mm) according to the agar plate diffusion method.

S. aureus ATCC 43300 [10] = assay: as above; assay type: cell-based; settings: MDRB S. aureus ATCC 43300
Text: as §1, §3

[11] = tested on: P. aeruginosa ATCC BAA-2111; assay: as above; assay type: cell-based; settings: MDRB P. aeruginosa ATCC BAA-2111
Text: as §1, §3

S. aureus ATCC 33591 [12] = assay: as above; assay type: cell-based; settings: MDRB S. aureus ATCC 33591
Text: as §1, §3

S. typhi ATCC 6539 = assay: Inhibition zone, paper disk/agar diffusion; assay type: cell-based; settings: S. typhi; Na = no activity
Text: as §3

E. coli ATCC 25922 [13] = assay: Inhibition zone, paper disk/agar diffusion; assay type: cell-based; settings: E. coli; Na = no activity
Text: as §3

E. faecalis ATCC 29212 [14] = assay: Inhibition zone, paper disk/agar diffusion; assay type: cell-based; settings: E. faecalis; Na = no activity
Text: as §3

S. aureus ATCC 29213 [15] = assay: Inhibition zone, paper disk/agar diffusion; assay type: cell-based; settings: S. aureus; Na = no activity
Text: as §3

[16] = tested on: F. oxysporum (RCMB 008002); assay: Inhibition zone, paper disk/agar diffusion; assay type: cell-based; settings: Na = no activity
Text: as §3

C. albicans (ATCC 10231) [17] = assay: Inhibition zone, paper disk/agar diffusion; assay type: cell-based; settings: Na = no activity
Text: as §3

E. faecalis ATCC 29212 [18] = assay: MIC and MBC determination; assay type: cell-based; settings: Enterococcus faecalis, ATCC29212, E. faecalis
S. aureus DNA gyrase = S. aureus DNA gyrase (Staphylococcus aureus, UniProt P0A0K8+P20831); assay: In vitro DNA gyrase supercoiling enzymatic assay; assay type: biochemical
Chain of S. aureus DNA gyrase (P20831 whole entry): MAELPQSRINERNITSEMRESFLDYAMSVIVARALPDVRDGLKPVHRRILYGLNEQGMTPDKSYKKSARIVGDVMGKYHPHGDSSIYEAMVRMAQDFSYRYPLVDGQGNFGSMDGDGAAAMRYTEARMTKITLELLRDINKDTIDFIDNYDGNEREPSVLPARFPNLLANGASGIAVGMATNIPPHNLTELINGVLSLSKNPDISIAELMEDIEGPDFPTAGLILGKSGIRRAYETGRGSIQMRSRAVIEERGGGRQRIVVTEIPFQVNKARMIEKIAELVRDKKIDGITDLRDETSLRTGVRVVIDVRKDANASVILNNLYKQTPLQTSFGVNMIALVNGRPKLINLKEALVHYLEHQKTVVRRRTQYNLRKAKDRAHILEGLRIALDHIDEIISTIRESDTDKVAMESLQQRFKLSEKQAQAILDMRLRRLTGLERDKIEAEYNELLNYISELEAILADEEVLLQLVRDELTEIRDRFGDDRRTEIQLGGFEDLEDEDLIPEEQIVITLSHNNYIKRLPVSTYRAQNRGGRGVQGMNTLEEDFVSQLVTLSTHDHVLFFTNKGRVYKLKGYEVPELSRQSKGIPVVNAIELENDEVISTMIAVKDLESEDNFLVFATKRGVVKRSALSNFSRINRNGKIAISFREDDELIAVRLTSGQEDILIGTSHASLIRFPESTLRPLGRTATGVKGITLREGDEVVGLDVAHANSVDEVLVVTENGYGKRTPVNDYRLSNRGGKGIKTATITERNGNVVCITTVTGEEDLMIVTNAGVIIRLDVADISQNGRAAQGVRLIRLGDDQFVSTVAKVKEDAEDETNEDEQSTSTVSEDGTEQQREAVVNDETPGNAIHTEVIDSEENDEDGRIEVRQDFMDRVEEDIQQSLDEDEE
Chain of S. aureus DNA gyrase (P0A0K8 whole entry): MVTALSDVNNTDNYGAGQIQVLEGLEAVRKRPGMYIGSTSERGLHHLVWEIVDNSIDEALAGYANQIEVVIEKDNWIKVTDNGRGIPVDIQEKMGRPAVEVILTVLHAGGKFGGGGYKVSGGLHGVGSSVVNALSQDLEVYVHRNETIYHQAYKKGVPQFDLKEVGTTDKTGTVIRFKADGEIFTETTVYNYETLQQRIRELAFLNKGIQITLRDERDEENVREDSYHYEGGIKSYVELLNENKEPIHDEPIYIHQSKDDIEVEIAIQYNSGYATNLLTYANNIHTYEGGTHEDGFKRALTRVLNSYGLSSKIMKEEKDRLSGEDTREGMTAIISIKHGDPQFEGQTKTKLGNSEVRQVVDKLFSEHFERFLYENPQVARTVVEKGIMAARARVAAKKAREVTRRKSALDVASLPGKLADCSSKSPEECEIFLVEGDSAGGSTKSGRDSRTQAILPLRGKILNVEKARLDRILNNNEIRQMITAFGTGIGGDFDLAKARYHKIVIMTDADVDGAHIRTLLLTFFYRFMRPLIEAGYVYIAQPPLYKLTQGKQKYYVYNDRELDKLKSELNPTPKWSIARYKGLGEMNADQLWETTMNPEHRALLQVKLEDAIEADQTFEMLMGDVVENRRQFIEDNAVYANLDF

P. aeruginosa ATCC 27853 = assay: MIC and MBC determination; assay type: cell-based; settings: Pseudomonas aeruginosa, ATCC27853, P. aeruginosa
C. albicans (ATCC 10231) [19] = assay: MIC and MFC determination; assay type: cell-based
B. subtilis ATCC 6633 = assay: MIC and MBC determination; assay type: cell-based; settings: Bacillus subtilis, ATCC6633, B. subtilis
E. coli ATCC 25922 [20] = assay: MIC and MBC determination; assay type: cell-based; settings: Escherichia coli, ATCC25922, E. coli
neutrophils = assay: In vitro intracellular killing, nitro blue tetrazolium (NBT) reduction assay; assay type: cell-based
Description: One of the broad methods used for determining immune disorders for patients in hospitals is the NBT test to measure their immune responses. The reduction in NBT dye provides information about the phagocytic and intracellular killing functions of neutrophils, which are important for microbiocidal activity. The most promising derivatives (2a, 2b, 2d, 3a, 8, and 11) were evaluated against in vitro intracellular killing activities using a nitro blue tetrazolium (NBT) reduction assay and the obtained results expressed in percentage (%): increasing the percentage led to an improvement in the killing ability of the neutrophils used as innate immunity.
In vitro intracellular killing activities for the most promising six derivatives 2a, 2b, 2d, 3a, 8, and 11 were performed according to reported methods.

With `N#CC(=Cc1ccc(Cl)cc1)C(=O)Nc1ccc(S(=O)(=O)NC(=N)N)cc1` [Compound 2a, N-(4-(N-Carbamimidoylsulfamoyl)phenyl)-3-(4-chlorophenyl)-2-cyanoacrylamide] the MFC/MIC [1] was under 2, the MFC ([1]; Fusarium oxysporum, RCMB008002, read-out: MFC) was 217 ± 2.98 µM (≈ 87.5 µg/mL) and the MIC ([1]; Fusarium oxysporum, RCMB008002, read-out: MIC) was 138 ± 1.69 µM (≈ 55.5 µg/mL). For the same compound, the MBC (S. aureus ATCC 29213 [2]; read-out: MBC) was 132 ± 1.35 µM (≈ 53.1 µg/mL), the MIC (S. aureus ATCC 29213 [2]; read-out: MIC) was 77.4 ± 2.65 µM (≈ 31.2 µg/mL) and the MBC (E. coli ATCC BAA-196 [3]) was 29.4 ± 0.65 µM (≈ 11.9 µg/mL). The MIC (E. coli ATCC BAA-196 [3]) was 15.5 ± 0.26 µM (≈ 6.25 µg/mL), the MBC (S. aureus ATCC 43300 [4]) was 22 ± 0.65 µM (≈ 8.88 µg/mL) and the MIC (S. aureus ATCC 43300 [4]) was 11 ± 0.25 µM (≈ 4.44 µg/mL). It also gave an MBC [5] of 21.3 ± 0.25 µM (≈ 8.61 µg/mL), an MIC [5] of 12.9 ± 0.65 µM (≈ 5.2 µg/mL) and an MBC (S. aureus ATCC 33591 [6]) of 8.19 ± 0.26 µM (≈ 3.31 µg/mL). It also gave an MIC (S. aureus ATCC 33591 [6]) of 4.82 ± 0.24 µM (≈ 1.95 µg/mL), an MBC ([7]; read-out: MBC) of 139 ± 1.63 µM (≈ 56.2 µg/mL) and an MIC ([7]; read-out: MIC) of 77.4 ± 1.06 µM (≈ 31.2 µg/mL). For the same compound, the IC50 [8] was 5.54 ± 0.33 µM, the “Mean Diameter of Inhibition Zone” value (E. coli ATCC BAA-196 [9]) was 23 ± 0.94 mm and the “Mean Diameter of Inhibition Zone” value (S. aureus ATCC 43300 [10]) was 23 ± 0.11 mm. The “Mean Diameter of Inhibition Zone” value [11] was 24 ± 0.18 mm, the “Mean Diameter of Inhibition Zone” value (S. aureus ATCC 33591 [12]) was 25 ± 0.33 mm and the “Mean Diameter of the Inhibition Zone” value (S. typhi ATCC 6539) was 23 ± 0.65 mm. For the same compound, the “Mean Diameter of the Inhibition Zone” value (E. coli ATCC 25922 [13]) was 26 ± 0.11 mm, the “Mean Diameter of the Inhibition Zone” value (E. faecalis ATCC 29212 [14]) was 23 ± 0.65 mm and the “Mean Diameter of the Inhibition Zone” value (S. aureus ATCC 29213 [15]) was 25 ± 0.77 mm. The “Mean Diameter of the Inhibition Zone” value [16] was 21 ± 0.16 mm, the “Mean Diameter of the Inhibition Zone” value (C. albicans (ATCC 10231) [17]) was 25 ± 0.33 mm and the MBC (E. faecalis ATCC 29212 [18]; read-out: MBC) was 38.7 ± 0.65 µM (≈ 15.6 µg/mL). It also gave an MIC (E. faecalis ATCC 29212 [18]; read-out: MIC) of 19.3 ± 0.65 µM (≈ 7.81 µg/mL), an IC50 (S. aureus DNA gyrase) of 23.9 ± 1.22 µM and an MBC (P. aeruginosa ATCC 27853; read-out: MBC) of 219.9 ± 1.54 µM (≈ 88.8 µg/mL). The MIC (P. aeruginosa ATCC 27853; read-out: MIC) was 137 ± 2.12 µM (≈ 55.5 µg/mL), the MFC/MIC (C. albicans (ATCC 10231) [19]) was under 2 and the MFC (C. albicans (ATCC 10231) [19]; Candida albicans, ATCC10231, read-out: MFC) was 103.1 ± 1.02 µM (≈ 41.6 µg/mL). It also gave an MIC (C. albicans (ATCC 10231) [19]; Candida albicans, ATCC10231, read-out: MIC) of 77.4 ± 0.85 µM (≈ 31.2 µg/mL), an MBC (B. subtilis ATCC 6633; read-out: MBC) of 45.8 ± 1.65 µM (≈ 18.5 µg/mL) and an MIC (B. subtilis ATCC 6633; read-out: MIC) of 22.9 ± 1.02 µM (≈ 9.25 µg/mL). The MBC (E. coli ATCC 25922 [20]; read-out: MBC) was 90.4 ± 0.98 µM (≈ 36.5 µg/mL), the MIC (E. coli ATCC 25922 [20]; read-out: MIC) was 45.8 ± 0.98 µM (≈ 18.5 µg/mL) and the “Intracellular Killing Activity” value (neutrophils) was 82.8 ± 0.37%.
